Results taken from US20120280189A1, “PERFLU[…] GASEOUS DIELECTRICS” (priority 2010, published 2012).

System: mice
Assay: short-term inhalation test, acute toxicity
Format: in vivo
Conditions: mice exposed for four hours at 100,000 ppm in air

O=C(C(F)(F)C(F)(F)F)C(F)(C(F)(F)F)C(F)(F)F [CF3CF2C(O)CF(CF3)2, 1,1,1,2,2,4,5,5,5-nonafluoro-4-trifluoromethyl-pentan-3-one]
acute toxicity: low acute toxicity
